Assay results published in US8912121B2, “Herbicidal compositions comprising 4-amino-3-chloro-5-fluoro-6-(4-chloro-2-fluoro-3-methoxyphenyl)pyridine-2-carboxylic acid or a derivative thereof and certain PS II inhibitors” (Dow Agrosciences LLC, priority 2012, dated 2014).

Experiments:
[1] = system: BRAPP (Brachiaria platyphylla, broadleaf signalgrass); assay: Pre-emergence soil-applied mixtures, greenhouse; type: in vivo, Brachiaria platyphylla (Groseb.) Nash; conditions: 27 DAA
Description: (§1) Seeds or nutlets of the desired test plant species were planted in a soil matrix prepared by mixing a loam soil (32 percent silt, 23 percent clay, and 45 percent sand, with a pH of about 6.5 and an organic matter content of about 1.9 percent) and calcareous grit in an 80 to 20 ratio. The soil matrix was contained in plastic pots with a volume of 1 quart and a surface area of 83.6 square centimeters (cm^2).
(§2) Treatments consisted of the benzyl ester of 4-amino-3-chloro-5-fluoro-6-(4-chloro-2-fluoro-3-methoxy-phenyl)pyridine-2-carboxylic acid (compound A) formulated as an SC (suspension concentrate) and various herbicidal components alone and in combination. Forms of compound A were applied on an acid equivalent basis.
(§3) Other herbicidal components were applied on an acid equivalent or active ingredient basis and included the PSII-inhibiting herbicides, atrazine formulated as Atrazine® 90WDG, metribuzin formulated as Metribuzin 75DF, simazine formulated as Princep Caliber 90, tebuthiuron formulated as Spike 80DF, cyanazine (technical grade material), hexazinone (technical grade material), linuron (technical grade material), terbuthylazine (technical grade material), and diuron formulated as Diuron 4L.
(§4) Treatment requirements were calculated based upon the rates being tested, the concentration of active ingredient or acid equivalent in the formulation, and a 12 mL application volume at a rate of 187 L/ha.
(§5) For treatments comprised of formulated compounds, measured amounts of compounds were placed individually in 25 mL glass vials and diluted in a volume of 1.25% (v/v) Agri-Dex® crop oil concentrate (COC) to obtain 12× stock solutions. […] Application solutions were prepared by adding an appropriate amount of each stock solution (e.g., 1 mL) and diluted to the appropriate final concentrations with the addition of 10 mL of an aqueous mixture of 1.25% (v/v) COC so that the final spray solutions contained 1.25% (v/v) COC.
(§6) For treatments comprised of technical compounds, weighed amounts can be placed individually in 25 mL glass vials and dissolved in a volume of 97:3 (v/v) acetone/DMSO to obtain 12× stock solutions. […] Application solutions can be prepared by adding an appropriate amount of each stock solution (e.g., 1 mL) and diluted to the appropriate final concentrations with the addition of 10 mL of an aqueous mixture of 1.5% (v/v) COC so that the final spray solutions contain 1.25% (v/v) COC. When technical materials are used, the concentrated stock solutions can be added to the spray solutions so that the final acetone and DMSO concentrations of the application solutions are 16.2% and 0.5%, respectively.
(§7) For treatments comprised of formulated and technical compounds, weighed amounts of the technical materials can be placed individually in 25 mL glass vials and dissolved in a volume of 97:3 (v/v) acetone/DMSO to obtain 12× stock solutions, and measured amounts of the formulated compounds can be placed individually in 25 mL glass vials and diluted in a volume of 1.5% (v/v) COC or water to obtain 12× stock solutions. […] Application solutions can be prepared by adding an appropriate amount of each stock solution (e.g., 1 mL) and diluted to the appropriate final concentrations with the addition of an appropriate amount of an aqueous mixture of 1.5% (v/v) COC so that the final spray solutions contain 1.25% (v/v) COC. As required, additional water and/or 97:3 (v/v) acetone/DMSO can be added to individual application solutions so that the final acetone and DMSO concentrations of the application solutions being compared are 8.1% and 0.25%, respectively.
(§8) All stock solutions and applications solutions were visually inspected for compound compatibility prior to application. Spray solutions were applied to the soil with an overhead Mandel track sprayer equipped with a 8002E nozzles calibrated to deliver 187 L/ha over an application area of 0.503 m^2 at a spray height of 18 inches (46 cm) above average pot height. […]

[2] = system: IPOHE (Ipomoea hederacea, ivyleaf morningglory); assay: Postemergence foliar-applied mixtures, direct seeded rice, greenhouse; type: in vivo, Ipomoea hederacea Jacq.; conditions: post-emergence
Description: (§9) Seeds or nutlets of the desired test plant species were planted in a soil matrix prepared by mixing a loam or sandy loam soil (e.g., 28.6 percent silt, 18.8 percent clay, and 52.6 percent sand, with a pH of about 5.8 and an organic matter content of about 1.8 percent) and calcareous grit in an 80 to 20 ratio. The soil matrix was contained in plastic pots with a volume of 1 quart and a surface area of 83.6 square centimeters (cm^2). When required to ensure good germination and healthy plants, a fungicide treatment and/or other chemical or physical treatment was applied. The plants were grown for 8-22 days in a greenhouse with an approximate 14 h photoperiod which was maintained at about 29° C. during the day and 26° C. during the night. Nutrients (Peters Excel® 15-5-15 5-Ca 2-Mg and iron chelate) were applied in the irrigation solution as needed and water was added on a regular basis. Supplemental lighting was provided with overhead metal halide 1000-Watt lamps as necessary. The plants were employed for testing when they reached the first through fourth true leaf stage.
(§10) Treatments consisted of the acid or esters of 4-amino-3-chloro-5-fluoro-6-(4-chloro-2-fluoro-3-methoxy-phenyl) pyridine-2-carboxylic acid (Compound A), each formulated as an SC (suspension concentrate), and various herbicidal components alone and in combination. Forms of compound A were applied on an acid equivalent basis.
(§11) Other herbicidal components were applied on an active ingredient basis and included Photosystem II (PSII)-inhibiting herbicides propanil formulated as Stam® M4 EC, bentazon-sodium formulated as Basagran®, atrazine formulated as Atrazine 90 WDG, bromoxynil octanoate ester formulated as Buctril®, simetryne (technical grade material), simazine formulated as Princep® Caliber 90, ioxynil (technical grade material), cyanazine (technical grade material), and hexazinone (technical grade material).
as §4
as §5, with “oil concentrated” for “oil concentrate (COC)”, “(v/v) crop oil concentrate” for “(v/v) COC”, “contained 1.25+/−0.05%” for “contained 1.25%”, “(v/v) crop oil concentrate.” for “(v/v) COC.”
as §6, with “97:3 v/v” for “97:3 (v/v)”, “(v/v) crop oil concentrate” for “(v/v) COC”, “(v/v) crop oil concentrate.” for “(v/v) COC.”
(§12) For treatments comprised of formulated and technical compounds, weighed amounts of the technical materials were placed individually in 25 mL glass vials and dissolved in a volume of 97:3 v/v acetone/DMSO to obtain 12× stock solutions, and measured amounts of the formulated compounds were placed individually in 25 mL glass vials and diluted in a volume of 1.5% (v/v) crop oil concentrate or water to obtain 12× stock solutions. […]

[3] = system: ECHCO (Echinochloa colona, junglerice); assay: as above; type: in vivo, Echinochloa colona (L.) Link; conditions: 21 DAA
Description: as §9, §10, §11, §4
as §5, with “oil concentrated” for “oil concentrate (COC)”, “(v/v) crop oil concentrate” for “(v/v) COC”, “contained 1.25+/−0.05%” for “contained 1.25%”, “(v/v) crop oil concentrate.” for “(v/v) COC.”
as §6, with “97:3 v/v” for “97:3 (v/v)”, “(v/v) crop oil concentrate” for “(v/v) COC”, “(v/v) crop oil concentrate.” for “(v/v) COC.”
as §12

[4] = system: ECHCG (Echinochloa crusgalli, barnyardgrass); assay: as above; type: in vivo, Echinochloa crusgalli (L.) Beauv.; conditions: 625 g ai/ha; 21 DAA
Description: as §9, with “When required to ensure good germination and healthy plants, a fungicide treatment and/or other chemical or physical treatment was applied.” left out
as §10, §11
as §5, with “oil concentrated” for “oil concentrate (COC)”, “(v/v) crop oil concentrate” for “(v/v) COC”, “contained 1.25+/−0.05%” for “contained 1.25%”, “(v/v) crop oil concentrate.” for “(v/v) COC.”
as §6, with “97:3 v/v” for “97:3 (v/v)”, “(v/v) crop oil concentrate” for “(v/v) COC”, “(v/v) crop oil concentrate.” for “(v/v) COC.”
For treatments comprised of formulated and technical compounds, weighed amounts of the technical materials were placed individually in 25 mL glass vials and dissolved in a volume of 97:3 v/v acetone/DMSO to obtain 12× stock solutions, and measured amounts of the formulated compounds were placed individually in 25 mL glass vials and diluted in a volume of 1.5% (v/v) crop oil concentrate or water to obtain 12× stock solutions. […] Application solutions were prepared by adding an appropriate amount of each stock solution (eg, 1 mL) and diluted to the appropriate final concentrations with the addition of an appropriate amount of an aqueous mixture of 1.5% (v/v) crop oil concentrate so that the final spray solutions contained 1.25% (v/v) crop oil concentrate.

[5] = system: XANST (Xanthium strumarium, common cocklebur); assay: Pre-emergence soil-applied mixtures, greenhouse; type: in vivo, Xanthium strumarium L.; conditions: Terbuthylazine 1000 g ai/ha; 27 DAA
Description: as §1, §2, §3, §4, §5, §6, §7, §8

CCNc1nc(Cl)nc(NC(C)(C)C#N)n1 [Cyanazine, 2-[[4-chloro-6-(ethylamino)-1,3,5-triazin-2-yl]amino]-2-methylpropanenitrile]
Visual Weed Control (%) - 27 DAA BRAPP Obs ([1]; Cyanazine 170 g ai/ha): 0% | Visual Weed Control (%) - 27 DAA BRAPP Obs ([1]; Cyanazine 440 g ai/ha): 15% | Visual Weed Control (%) - 27 DAA BRAPP Obs ([1]; Cyanazine 880 g ai/ha): 10% | pest or weed control at 275 g/ha ([2]; 480 h, read-out: Visual Weed Control (%) Obs, 275 g ai/ha, 20 DAA): 50%

CN(C)c1nc(=O)n(C2CCCCC2)c(=O)n1C [Hexazinone, 3-cyclohexyl-6-(dimethylamino)-1-methyl-1,3,5-triazine-2,4(1H,3H)-dione, reference compound]
Visual Weed Control (%) Obs ([3]; 625 g ai/ha): 25% | Visual Weed Control (%) Obs ([3]; 1250 g ai/ha): 55% | pest or weed control at 625 g/ha ([2]; 504 h, 625 g ai/ha, 21 DAA, read-out: Visual Weed Control (%) Obs): 80% | Visual Weed Control (%) Obs [4]: 20%

N#Cc1cc(I)c(O)c(I)c1 [Ioxynil, 4-hydroxy-3,5-diiodobenzonitrile, reference compound]
pest or weed control at 300 g/ha ([2]; 480 h, read-out: Visual Weed Control (%) Obs, 300 g ai/ha, 20 DAA): 50%

CON(C)C(=O)Nc1ccc(Cl)c(Cl)c1 [Linuron, N′-(3,4-dichlorophenyl)-N-methoxy-N-methylurea]
Visual Weed Control (%) - 27 DAA BRAPP Obs ([1]; Linuron 620 g ai/ha): 0%

CCNc1nc(Cl)nc(NC(C)(C)C)n1 [Terbuthylazine, 6-chloro-N-(1,1-dimethylethyl)-N′-ethyl-1,3,5-triazine-2,4-diamine, reference compound]
Visual Weed Control (%) - 27 DAA XANST Obs [5]: 45%
